The record followed here is US5298513A, “Substituted basic 2-aminotetralin in pharmaceuticals” (Bayer Aktiengesellschaft, priority 1986, dated 1994).

One assay has as its target 5-HT1 receptor. Briefly: Affinity to the 5-HT1 receptor (receptor binding, calf hippocampus membrane preparations, 3H-serotonin). The conditions noted are these: calf hippocampus membranes, 3H-serotonin radioligand. The method, then: A.) Affinity to the 5-HT1 Receptor […] The values specified are data which were determined from receptor binding studies using calf hippocampus membrane preparations. 3H-serotonin was used for this purpose as radioactively labelled ligand.

Assay [1] relates to contraction, caused by serotonin, of the arteria basilaris. Briefly: Serotonin-agonistic/antagonistic action on the contraction, caused by serotonin, of the arteria basilaris of the dog. The conditions noted are these: for Effect antagonistic: suppression of serotonin-induced contraction after pre-treatment; for Effect agonistic: serotonin-mimetic contraction. Type of assay: cell-based. The source says: B.) Investigation of the serotonin-agonistic/antagonistic action
To this purpose, the action on the contraction, caused by serotonin, of the arteria basilaris of the dog is investigated [cf. Peroutka et al., Brain Research 259, 327 (1983)].
In this test model, an agonistic action can be detected by the serotonin-mimetic action (contraction).

Structures can show the parent of a compound that is named as a salt.

In general, Ki refers to a measure of affinity in units of concentration, obtained from inhibition or displacement. High values mean a looser hold on the target, low ones a stronger hold on the target. On to `CCCN(CCN1CCCCS1(=O)=O)C1CCc2cccc(OC)c2C1` (stereo not drawn) [Example 58, 2-[2-N-Propyl-N-(8-methoxy-1,2,3,4-tetrahydro-2-naphthyl)-amino]ethyl-perhydro-1,2-thiazine 1,1-dioxide hydrochloride], for which the affinity on 5-HT1 receptor, expressed as Ki, was 4 nM.

As to `CCCN(CCNC(=O)OCC)C1CCc2cccc(OC)c2C1` (stereo not drawn) [Example 22, 2-[N-(2-Ethoxycarbonylamido-ethyl)-N-propyl]amino-8-methoxy-1,2,3,4-tetrahydronaphthalene hydrochloride], the Effect antagonistic in assay [1] is 0. For the same compound, affinity on 5-HT1 receptor was put at a Ki of 3 nM.

`CCCN(CCCNC(=O)c1cccnc1)C1CCc2cccc(OC)c2C1` (stereo not drawn) [Example 62, dihydrochloride]: on 5-HT1 receptor, the affinity corresponds to a Ki of 4 nM.

In the case of `CCCN(CC#N)C1CCc2cccc(OC)c2C1` (stereo not drawn) [Example 26, 2-(N-Cyanomethyl-N-propyl)amino-8-methoxy-1,2,3,4-tetrahydronaphthalene hydrochloride], the inhibition constant Ki at 5-HT1 receptor worked out at 2 nM. Compared with the last compound, the Ki is about 2-fold lower.

Turning to `CCCN(CCO)C1CCc2cccc(OC)c2C1` (stereo not drawn) [Example 42, 2-[N-(2-Hydroxyethyl)-N-propyl]amino-8-methoxy-1,2,3,4-tetrahydronaphthalene], at 5-HT1 receptor, the Ki is 4 nM. This Ki is about 2-fold higher than that of the compound before.

For the compound `CCCN(CCC)C1CCc2cccc(O)c2C1` (stereo not drawn) [R^1 = H, R^2 = nC3 H7, R^3 = nC3 H7, reference compound], the Effect antagonistic in assay [1] is given as 0.

For `CCCN(CCN(CC)CC)C1CCc2cccc(OC)c2C1` (stereo not drawn) [Example 20, 2-[N-(2-Diethylaminoethyl)-N-propyl]amino-8-methoxy-1,2,3,4-tetrahydronaphthalene dihydrochloride], on 5-HT1 receptor, affinity was put at a Ki of 11 nM.

`CCCN(CCCCN1C(=O)c2ccccc2S1(=O)=O)C1CCc2cccc(OC)c2C1.Cl` (stereo not drawn) [Example 34, 2-{4-[N-(8-Methoxy-1,2,3,4-tetrahydro-2-naphthyl)-N-propyl-amino]butyl}-1,2-benzisothiazol-3(2H)-one 1,1-dioxide hydrochloride] had an Effect agonistic in assay [1] of 0. For the same compound, at 5-HT1 receptor, the affinity corresponds to a Ki of 1 nM.

In assay [1], `CCCN(CCNS(=O)(=O)c1ccc(C)cc1)C1CCc2cccc(OC)c2C1` (stereo not drawn) [Example 45, 8-Methoxy-2-{N-[2-(4-toluene-sulphonamido)ethyl]-N-propyl}amino-1,2,3,4-tetrahydronaphthalene hydrochloride] registered an Effect agonistic of 0. In addition, the Ki at 5-HT1 receptor was 1 nM.
